In ChEMBL document CHEMBL3632501, “New SIRT1 activator from alkaline hydrolysate of total saponins in the stems-leaves of Panax ginseng” (Bioorg Med Chem Lett, 2015):
The source made the active and inactive calls. The calls are words filed in the database; no cut-off is given here.

Key:
[1] = biological target: T1, NAD-dependent protein deacetylase sirtuin-1 (Homo sapiens) (UniProt Q96EB6); experiment: Activation of SIRT1 (unknown origin) after 45 mins by NAD/NADH enzyme-based fluorometric assay
T1 sequence (whole entry): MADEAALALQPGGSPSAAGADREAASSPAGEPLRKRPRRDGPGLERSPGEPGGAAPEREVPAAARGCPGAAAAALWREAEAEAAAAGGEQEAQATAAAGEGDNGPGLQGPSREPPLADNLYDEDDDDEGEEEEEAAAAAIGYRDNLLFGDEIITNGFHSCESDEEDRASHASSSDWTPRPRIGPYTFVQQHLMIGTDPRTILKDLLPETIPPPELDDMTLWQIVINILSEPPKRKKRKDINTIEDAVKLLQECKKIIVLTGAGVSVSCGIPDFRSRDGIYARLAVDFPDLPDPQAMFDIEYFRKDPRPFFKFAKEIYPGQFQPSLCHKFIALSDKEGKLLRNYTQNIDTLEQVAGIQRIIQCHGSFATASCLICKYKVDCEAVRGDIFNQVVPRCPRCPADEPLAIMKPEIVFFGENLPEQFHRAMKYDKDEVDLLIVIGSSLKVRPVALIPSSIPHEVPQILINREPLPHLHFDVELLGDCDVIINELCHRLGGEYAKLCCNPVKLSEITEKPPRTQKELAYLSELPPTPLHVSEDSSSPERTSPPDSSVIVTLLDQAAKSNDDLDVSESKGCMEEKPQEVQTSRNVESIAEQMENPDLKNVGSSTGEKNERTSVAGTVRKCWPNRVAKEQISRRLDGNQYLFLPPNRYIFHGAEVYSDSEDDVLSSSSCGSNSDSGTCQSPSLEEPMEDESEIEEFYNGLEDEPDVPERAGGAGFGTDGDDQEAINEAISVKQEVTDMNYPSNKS

HL-60 = experiment: Cytotoxicity against human HL60 cells after 48 hrs by MTT assay; format: functional, cell-based; settings: for IC50: HL-60, 48 h
HepG2 = experiment: Cytotoxicity against human HepG2 cells after 48 hrs by MTT assay; format: functional, cell-based; settings: for IC50: HepG2, 48 h

SMILES | Activity [1] | IC50 (HL-60) [µM] | IC50 (HepG2) [µM] | Activity (HL-60) | Activity (HepG2)
C=C(CCC=C(C)C)[C@H]1CC[C@]2(C)[C@@H]1[C@H](O)C[C@@H]1[C@@]3(C)CC[C@H](O[C@@H]4O[C@H](CO)[C@@H](O)[C@H](O)[C@H]4O[C@@H]4O[C@H](CO)[C@@H](O)[C@H](O)[C@H]4O)C(C)(C)[C@@H]3CC[C@]12C [GISENOSIDE RK1] | Active | 58.1 | 79.8 |  | 
CC(C)=CCC[C@](C)(O)[C@H]1CC[C@]2(C)[C@@H]1[C@H](O)C[C@@H]1[C@@]3(C)CC[C@H](O)C(C)(C)[C@@H]3CC[C@]12C | Active | 15.5 | 45.7 |  | 
CC(C)=CCC[C@@](C)(O)[C@H]1CC[C@]2(C)[C@@H]1[C@H](O)C[C@@H]1[C@@]3(C)CC[C@H](O)C(C)(C)[C@@H]3[C@@H](O[C@@H]3O[C@H](CO)[C@@H](O)[C@H](O)[C@H]3O)C[C@]12C | inactive | > 200 | > 200 |  | 
CC(C)=CCC[C@@](C)(O)[C@H]1CC[C@]2(C)[C@@H]1[C@H](O)C[C@@H]1[C@@]3(C)CC[C@H](O)C(C)(C)[C@@H]3[C@@H](O)C[C@]12C | Active | 28.7 | 58.3 |  | 
CC(C)=CCC[C@@](C)(O)[C@H]1CC[C@]2(C)[C@@H]1[C@H](O)C[C@@H]1[C@@]3(C)CC[C@H](O)C(C)(C)[C@@H]3CC[C@]12C | Active | 23.4 | 69.1 |  | 
CC(=O)OC[C@H]1O[C@@H](O[C@H]2C[C@]3(C)[C@H](C[C@@H](O)[C@@H]4[C@@H]([C@@](C)(O)CCC=C(C)C)CC[C@]43C)[C@@]3(C)CC[C@H](O)C(C)(C)[C@H]23)[C@H](O)[C@@H](O)[C@@H]1O | Active | 128 | 169 |  | 
CC(C)=CCC[C@](C)(O)[C@H]1CC[C@]2(C)[C@@H]1[C@H](O)C[C@@H]1[C@@]3(C)CC[C@H](O)C(C)(C)[C@@H]3[C@@H](O)C[C@]12C | Active | 22.8 | 43.4 |  | 
CC(C)=CC/C=C(\C)[C@H]1CC[C@]2(C)[C@@H]1[C@H](O)C[C@@H]1[C@@]3(C)CC[C@H](O)C(C)(C)[C@@H]3[C@@H](O[C@@H]3O[C@H](CO)[C@@H](O)[C@H](O)[C@H]3O[C@@H]3O[C@@H](C)[C@H](O)[C@@H](O)[C@H]3O)C[C@]12C | inactive | 82.8 | 152 |  | 
CC(C)=CC/C=C(\C)[C@H]1CC[C@]2(C)[C@@H]1[C@H](O)C[C@@H]1[C@@]3(C)CC[C@H](O)C(C)(C)[C@@H]3[C@@H](O)C[C@]12C | Active | 10.3 | 24.3 | Dose-dependent effect | Dose-dependent effect
CCC1=C[C@@H]2CN(C1)Cc1c([nH]c3ccccc13)[C@@](C(=O)OC)(c1cc3c(cc1OC)N(C)[C@H]1[C@@](O)(C(=O)OC)[C@H](OC(C)=O)[C@]4(CC)C=CCN5CC[C@]31[C@@H]54)C2 [VINORELBINE] |  | 11.5 | 23.1 |  | 
CC(C)=CC/C=C(\C)[C@H]1CC[C@]2(C)[C@@H]1[C@H](O)C[C@@H]1[C@@]3(C)CC[C@H](O[C@@H]4O[C@H](CO)[C@@H](O)[C@H](O)[C@H]4O)C(C)(C)[C@@H]3[C@@H](O)C[C@]12C | Active | 50.2 | 86.5 |  | 
CC(C)=CCC[C@](C)(O)[C@H]1CC[C@]2(C)[C@@H]1[C@H](O)C[C@@H]1[C@@]3(C)CC[C@H](O)C(C)(C)[C@@H]3[C@@H](O[C@@H]3O[C@H](CO)[C@@H](O)[C@H](O)[C@H]3O)C[C@]12C [GINSENOSIDE RH1] | Active | > 200 | > 200 |  | 
C=C(C)[C@@H](O)C/C=C(\C)[C@H]1CC[C@]2(C)[C@@H]1[C@H](O)C[C@@H]1[C@@]3(C)CC[C@H](O[C@@H]4O[C@H](CO)[C@@H](O)[C@H](O)[C@H]4O)C(C)(C)[C@@H]3CC[C@]12C | Active | 24.8 | 44.1 |  | 
C=C(CCC=C(C)C)[C@H]1CC[C@]2(C)[C@@H]1[C@H](O)C[C@@H]1[C@@]3(C)CC[C@H](O)C(C)(C)[C@@H]3[C@@H](O)C[C@]12C | Active | 18.3 | 42.1 |  | 
